# According to US11680054B2, “Bronchodilating hetero-linked amides” (Arcede Pharma AB, priority 2018, dated 2023):
# Experiments:
# [1] = Solubility in phosphate buffer (pH 7.4); type: physicochemical; conditions: aqueous buffer, thermodynamic from solid; phosphate buffer pH 7.4, agitated 20 hours at 37° C.
# Method: The solubilities of 1-(5,8-Dichloro-6,7-dihydroxy-3,4-dihydroisoquinolin-2(1H)-yl)-2-(6-(trifluoromethyl)pyridin-3-ylthio)ethenone (example 1) and the known compound 1-(5,8-Dichloro-6,7-dihydroxy-3,4-dihydroisoquinolin-2(1H)-yl)-2-(6-(trifluoromethyl)pyridine-3-yloxy)ethanone in phosphate buffer (pH 7.4) were determined.
# Briefly, 1 mg of the study compounds were weighted into glass vials (two replicates). 2 ml of pH 7.4 phosphate buffer was added into the vials and vials were then agitated (1300 rpm) 20 hours at 37° C. Samples were filtrated using 0.45 μm PVDA syringe filters before analysis. 10 μg/ml and 500 μg/ml standard solutions in acetonitrile:ultra-pure water were prepared using 10 mM DMSO-stock solution. Samples and standards were analyzed from glass vials. The samples were analyzed using UPLC/PDA immediately after preparation. A Waters Acquity ultra high-performance liquid chromatographic (UPLC) system with autosampler, vacuum degasser, photo-diode-array detector (Acquity PDA) and column oven was used.
# male Sprague Dawley rats = experiment: Carbamylcholine-induced bronchospasm in anaesthetised rats (Konzett-Rossler method); type: in vivo; conditions: rat; for Bronchodilatating effect on carbamylcholine chloride induced bronchoconstriction: intra-tracheal, administered at 6 mM, smaller increase in pulmonary resistance compared to vehicle; for Total pulmonary resistance increase from baseline post carbamylcholine chloride challenge, Average: single intra-tracheal nebulization of 100 μl at 6 mM, 30 min before carbamylcholine chloride 275 μg/kg iv
# Method: The bronchocondilatator effect of example 1 and (2E)-1-(5,8-dichloro-3,4-dihydro-6,7-dihydroxy-2(1H)-isoquinolinyl)-3-[6-(trifluoromethyl)-3-pyridinyl]-2-propen-1-one was evaluated using the Konzett-Rossler method (cf. Konzett H, Rössler R (1940) Versuchsanordung zu Untersuchungen an der Bronchialmuskulatur. Naunyn-Schmiedeberg's Arch Exp Path Pharmakol 192:71-74) in the anaesthetised rat following single intra-tracheal administration.
# The study involved male Sprague Dawley rats, weighing between 291.1 g and 347.7 g on the day of the test.
# Animals were put on to a water-only fast the day prior to the test. On the day of the test, animals were anaesthetised using sodium pentobarbital at a dose of 60 mg/kg by intraperitoneal route in a volume of 1 mL/kg, then at 2 mg/mL by the intravenous route at a rate of 10 mL/kg/hour throughout the test. The trachea was quickly cannulated to enable artificial respiration. The animals were ventilated with an air flow of approximately 1 mL per 100 g at a rate of 54 cycles/minute. Total pulmonary resistance was measured continuously using a pressure transducer, fitted to a side branch of the tracheal cannula. Arterial blood pressure and heart rate were obtained by placing the telemetric pressure sensor of telemetric transmitter HD-S11 in the carotid artery. A jugular vein was cannulated for the intravenous administration of carbamylcholine chloride. The temperature of the animal was kept between 36.0° C. and 39.3° C. using an electric blanket. At the end of the surgical phase, animals were pre-medicated with a solution of pancuronium bromide at 0.2 mg/mL by the intravenous route at a rate of 10 mL/kg/hour throughout the test to avoid spontaneous respiration. Ventilatory flow was adjusted in such way as to obtain a baseline stabilisation of the pulmonary pressure resistance between 6.5 to 10.5 mmHg (i.e. approximately between 10 to 15% of maximum pulmonary resistance). About 15 minutes after the end of the surgical phase and stabilisation of the pulmonary pressure signal, the animals were dosed with: • 1. Example 1; • 2. (2E)-1-(5,8-dichloro-3,4-dihydro-6,7-dihydroxy-2(1H)-isoquinolinyl)-3-[6-(trifluoromethyl)-3-pyridinyl]-2-propen-1-one; or • 3. Their vehicle
# by intra-tracheal nebulization in a volume of 100 μl using a Microsprayer aerosolizer (Penncentury).
# Thirty minutes later, carbamylcholine chloride at 275 μg/kg was administered using an infusion pump in a volume of 3.33 mL/kg over a 5-minute period. Total pulmonary resistance, mean, systolic and diastolic arterial blood pressure and heart rate were continuously recorded over the test.
# Example 1 was formulated by dissolving 5.5 mg in 2015 μl vehicle (200 mM (2-hydroxypropyl)-β-cyclodextrin, 49 mM L-lysine, 6.2 mM L-ascorbic acid in MilliQ water). […]
# [2] = test system: human peripheral blood mononuclear cell (PBMC); experiment: Human PBMC in vitro model, LPS induced MCP-1 and LTB-4 levels; type: cell-based; conditions: for LTB-4 reduction (%) / MCP-1 reduction (%): LPS 0.1 μg/ml, 24 h
# Method: Cryopreserved PBMC's (SeraCare, #72001) are thawed, washed with culture media (RPMI-1640 from Invitrogen, #61870-036+10% heat inactivated fetal bovine serum from Invitrogen, #10082-147+100 U/ml penicillin+100 μg/ml streptomycin) and tested for viability using Trypan blue (PBMC viability=96%). Cells are then resuspended to 1×10^6 cells/ml in culture media and 0.5 ml plated into 24 well culture plates (5×10^5 cells/well) before incubation for 30 minutes at 37° C. with 5% C02 prior to addition of a compound to be assessed (10 μM) or dexamethasone (1 μM). One hour thereafter, LPS (0.1 μg/ml, Salmonella abortus equi, Sigma, #L1887) are added and the cells are incubated for another 24 h before collection of the cell culture supernatants, which are assayed for the presence of MCP-1 and LTB4.
# MCP-1 levels are quantified employing a Luminex-based assay according the manufacturer's instructions. Data are collected using a Luminex 100 (Luminex Corporation, Austin, Tex.). Standard curves are generated using a 5-parameter logistic curve fitting equation weighted by 1/y (StarStation V 2.0; Applied Cytometry Systems, Sacramento, Calif.). Each sample reading are interpolated from the appropriate standard curve. Calculated concentrations are multiplied by the appropriate dilution factor when necessary.
# LTB4 levels are quantified by ELISA following the manufacturer's instructions. Absorbance readings are detected using a ThermoMax microplate reader (Molecular Devices). Standard curves are generated using a 4-parameter logistic curve fitting equation (SoftMax Pro 4.7.1; Molecular Devices). Each sample reading are interpolated from the appropriate standard curve. Duplicate interpolated sample values are averaged and standard deviations are calculated. Calculated concentrations are multiplied by the appropriate dilution factor.
# The reults in lowering MCP-1 and LTB-4 levels compared to vehicle (negative control) and 1 μM dexamethasone (positive control) are given below.
# human bronchiols = experiment: Leukotriene D4 induced contraction of human bronchus preparations, in vitro model; conditions: pre-treatment with compound at 10 μM; Leukotriene D4 (10 nM) induced contraction of human bronchiols
# Method: (§1) The usefulness of the compounds, as defined in the preceding embodiments, in treating, pretreating, revoking, mitigating, alleviating and/or preventing a condition of the respiratory apparatus characterized by bronchoconstriction, were evaluated in a complex and relevant in vitro model. The in vitro model was in accordance with the in vitro model disclosed in US 2006-0040254 A1 and Skogvall, S., Berglund, M., Dalence-Guzmán, M. F., Svensson, K., Jönsson, P., Persson, C. G. A and Sterner, O., Pulmonary Pharmacology and Therapeutics, vol 20:3, 2007, p. 273-280. All references disclosed herein are hereby incorporated in their entirety by reference.
# In short, lung tissue was obtained from patients undergoing lobectomia or pulmectomia due to lung carcinoma. From the bronchus of this tissue were rectangular oblong preparations obtained. The contraction induced by inflammatory mediators, such as Leukotriene D4, histamine, prostaglandin D2 or acetylcholine, in the presence and absence of the compound to be evaluated, were compared.
# as §1, with “embodiments herein,” for “preceding embodiments,”, “treating,” for “treating, pretreating,”, “model, which is described” for “model. The in vitro model was in accordance with the in vitro model disclosed”
# The remaining contraction, after pre-treatment with various compound examples at a concentration of 10 μM, of human bronchiols after Leukotriene D4 (10 nM) induced contraction according to the in vitro method described herein above are tabulated below.
# [3] = dexamethasone 1 μM (positive control)
# [4] = compound 10 μM, compared to vehicle
smiles,measurement,setting,value
"O=C(COc1ccc(C(F)(F)F)nc1)N1CCc2c(Cl)c(O)c(O)c(Cl)c2C1 [1-(5,8-Dichloro-6,7-dihydroxy-3,4-dihydroisoquinolin-2(1H)-yl)-2-(6-(trifluoromethyl)pyridine-3-yloxy)ethanone, reference compound]",solubility at 20 h,[1],76.7 µg/mL
"O=C(/C=C/c1ccc(C(F)(F)F)nc1)N1CCc2c(Cl)c(O)c(O)c(Cl)c2C1 [(2E)-1-(5,8-dichloro-3,4-dihydro-6,7-dihydroxy-2(1H)-isoquinolinyl)-3-[6-(trifluoromethyl)-3-pyridinyl]-2-propen-1-one, reference compound]",Bronchodilatating effect on carbamylcholine chloride induced bronchoconstriction,male Sprague Dawley rats,had a bronchodilatating effect
same,"Total pulmonary resistance increase from baseline post carbamylcholine chloride challenge, Average",male Sprague Dawley rats,2.86 mmHg
"C[C@@H]1C[C@H]2[C@@H]3CCC4=CC(=O)C=C[C@]4(C)[C@@]3(F)[C@@H](O)C[C@]2(C)[C@@]1(O)C(=O)CO [Dexamethasone, dexamethasone, reference compound]",LTB-4 reduction (%),[2]; [3],23.4%
same,MCP-1 reduction (%),[2]; [3],15.5%
"O=C(CSc1ccc(C(F)(F)F)nc1)N1CCc2c(Cl)c(O)c(O)c(Cl)c2C1 [Example 1, 1-(5,8-Dichloro-6,7-dihydroxy-3,4-dihydroisoquinolin-2(1H)-yl)-2-(6-(trifluoromethyl)pyridin-3-ylthio)ethanone]",Remaining contraction (%),human bronchiols,7%
same,solubility at 20 h,[1],16.6 µg/mL
same,Reduction of inflammatory markers (MCP-1 and LTB-4),"[2]; 10 μM, LPS stimulated PBMC",significant reduction
same,LTB-4 reduction (%),[2]; [4],20.7%
same,MCP-1 reduction (%),[2]; [4],70.8%
same,Bronchodilatating effect on carbamylcholine chloride induced bronchoconstriction,male Sprague Dawley rats,had a bronchodilatating effect
same,"Total pulmonary resistance increase from baseline post carbamylcholine chloride challenge, Average",male Sprague Dawley rats,2.33 mmHg
"Cc1nc(C(F)(F)F)ccc1SCC(=O)N1CCc2c(Cl)c(O)c(O)c(Cl)c2C1 [Example 2, 1-(5,8-Dichloro-6,7-dihydroxy-3,4-dihydroisoquinolin-2(1H)-yl)-2-(2-methyl-6-(trifluoromethyl)pyridin-3-ylthio)ethanone]",Remaining contraction (%),human bronchiols,14%
"Cc1cc(C(F)(F)F)cc(SCC(=O)N2CCc3c(Cl)c(O)c(O)c(Cl)c3C2)n1 [Example 3, 1-(5,8-Dichloro-6,7-dihydroxy-3,4-dihydroisoquinolin-2(1H)-yl)-2-(6-methyl-4-(trifluoromethyl)pyridin-2-ylthio)ethanone]",Remaining contraction (%),human bronchiols,16%
"O=C(C1CCCN(c2ccc(F)cn2)C1)N1CCc2c(Cl)c(O)c(O)c(Cl)c2C1 (stereo not drawn) [Example 4, (5,8-Dichloro-6,7-dihydroxy-3,4-dihydroisoquinolin-2(1H)-yl)(1-(5-fluoropyridin-2-yl)piperidin-3-yl)methanone]",Remaining contraction (%),human bronchiols,51%
